Data from PubChem BioAssay (NCI).
Values after ≈ are worked out from the molar mass of the structure shown. Values joined by “and” are separate entries in the source; they are usually repeats but may differ in a detail not shown here. Equal entries are not always repeated.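 Test compounds were applied to cells in 96-well plates for 48 hours at 5 doses. Abbreviation: GI50, concentration required for 50% inhibition of growth. TGI denotes the concentration required for complete inhibition of growth.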 Active and inactive are the calls of the source. Rule as the data show it: active = GI50 below about 0.43 µM; inactive = the rest.

How the values were obtained:
Experiment in all cases: NCI-60 cell line screen, 48 h
LXFL 529 NSCLC = tested on: LXFL 529 NSCLC
KM20L2 colon = tested on: KM20L2 colon
DMS 114 small cell lung = tested on: DMS 114 small cell lung
DMS 273 small cell lung = tested on: DMS 273 small cell lung
SNB-78 CNS = tested on: SNB-78 CNS
BT-549 breast = tested on: BT-549 breast
NCI/ADR-RES ovarian = tested on: NCI/ADR-RES ovarian
MCF7 breast = tested on: MCF7 breast
DU-145 prostate = tested on: DU-145 prostate

Structure (SMILES)	TGI (LXFL 529 NSCLC)	TGI (KM20L2 colon)	TGI (DMS 114 small cell lung)	TGI (DMS 273 small cell lung)	TGI (SNB-78 CNS)	further results
COC(=O)C1Cc2c([nH]c3ccccc23)[C@H](CC(C)C)N1 (some centres not stated)	> 100 µM	> 100 µM	> 100 µM	> 100 µM	> 100 µM	
Cc1cc(O)c2c(c1)C[C@@H](O)C1=C2C(=O)c2c(O)ccc(OC3CC(O)C(OC4CC(OC5CCC(OC6CC(O)C(OC7CC(OC8CCC(O)C(C)O8)C(O)C(C)O7)C(C)O6)C(C)O5)C(O)C(C)O4)C(C)O3)c2C1=O (some centres not stated)	0.0293 µM	0.191 µM	0.0378 µM	0.0684 µM	0.064 µM	TGI (BT-549 breast): 0.49 µM; GI50 (NCI/ADR-RES ovarian): 3.01 µM and 1.8 µM; GI50 (MCF7 breast): 0.394 µM and 0.921 µM; TGI (MCF7 breast): 0.599 µM and 1.69 µM and 2.32 µM; GI50 (DU-145 prostate): 2.03 µM and 1.37 µM; TGI (DU-145 prostate): 0.492 µM and 3.45 µM and 2.69 µM
CC(C)c1ccc2c(c1)CCC1C(C)(C)[C@@H](O)CC[C@]21C (some centres not stated)	> 100 µM	44.4 µM	> 100 µM	> 100 µM	> 100 µM	
[N-]=[N+]=Nc1ccc(S(=O)(=O)Oc2cc(OS(=O)(=O)c3ccc(N=[N+]=[N-])cc3)cc(OS(=O)(=O)c3ccc(N=[N+]=[N-])cc3)c2)cc1	> 100 µM	> 100 µM	> 100 µM	> 100 µM	> 100 µM	
O=C(CC(O)(c1ccccc1)c1ccc(Cl)cc1)NC(=O)c1ccccc1O (configuration not stated)	56.3 µM	34.3 µM	31.5 µM	39 µM	> 100 µM	
c1ccc([CH2][Sn]([CH2]c2ccccc2)([S]c2cccc3cccnc23)[S]c2cccc3cccnc23)cc1	0.244 µM	1.14 µM	0.378 µM		1.5 µM	GI50 (LXFL 529 NSCLC): 0.101 µM; GI50 (KM20L2 colon): 0.365 µM; GI50 (DMS 114 small cell lung): 0.175 µM; GI50 (SNB-78 CNS): 0.382 µM
CCCCN(CCCC)C(=Nc1ccccc1)N(CCCC)CCCC	18.5 µM	12.5 µM	4.99 µM	17.1 µM	41 µM	
O=C(c1ccccc1)c1nnn(Cc2cccc(Cl)c2)c1C(=O)c1ccccc1	> 100 µM	> 100 µM	> 100 µM	> 100 µM	> 100 µM	
C=CCCc1cc(OC)ccc1CN(C)C(C)(C)CO		> 100 µM	> 100 µM	> 100 µM	> 100 µM	
Cc1ccc(S(=O)(=O)NCCCN(CCCNS(=O)(=O)c2ccc(C)cc2)S(=O)(=O)c2ccc(C)cc2)cc1	> 100 µM	> 100 µM	> 100 µM	> 100 µM	> 100 µM	
COc1ccc(C(=O)O/N=C2\CCCC\C2=C/c2ccccc2)cc1	> 100 µM	> 100 µM	> 100 µM	> 100 µM	> 100 µM	
C=C1C(=O)OC2C1C(OC(=O)/C(=C/C)COC(C)=O)CC1(CO1)C1C(OC(=O)/C(=C/C)CO)C=C(C)C21 (configuration not stated)	1.66 µM	11.2 µM	4.46 µM	3.68 µM	6.41 µM	
O=C(Nc1nc2ncn(CCOC(=O)c3ccccc3)c2c(=O)[nH]1)c1ccccc1	> 100 µM	83.3 µM			> 100 µM	TGI (NCI/ADR-RES ovarian): > 100 µM; TGI (MCF7 breast): > 100 µM; TGI (DU-145 prostate): > 100 µM
CC(=O)Oc1c(-c2ccccc2)[nH]c2cc([N+](=O)[O-])c(/C(Cl)=C/c3ccccc3)cc12	18.1 µM	18.6 µM	7.72 µM		52.6 µM	
COc1c(O)c2ccccc2c2cc(O)ccc12	9.9 µM	46.6 µM	6.03 µM	20.5 µM	46.6 µM	TGI (BT-549 breast): 7.04 µM; TGI (NCI/ADR-RES ovarian): 29.5 µM; TGI (MCF7 breast): 8.22 µM; TGI (DU-145 prostate): 21 µM
CCC12C=CCN3CC[C@]4(C(=C(C(=O)OC)[C@@H]1Nc1ncnc5c1ncn5C1OC(COC(C)=O)C(OC(C)=O)C1OC(C)=O)Nc1ccccc14)C32 (some centres not stated)	5.42 µM	6.94 µM	4.27 µM	7.17 µM	8.26 µM	
CN(C)C1(C#N)CCC2(CC1)OCCO2		> 100 µM		> 100 µM	> 100 µM	
COC1OC(OC)C2C(c3c(C)cc(C)cc3C)=NOC12 (configuration not stated)	> 100 µM	> 100 µM		> 100 µM	> 100 µM	
O=C(Nc1ccc(Cl)cc1)NS(=O)(=O)c1ccc2c(c1)CCC2	> 100 µM	> 100 µM	> 100 µM	> 100 µM and 39.6 µg/mL	> 100 µM and 51 µg/mL	outcome (LXFL 529 NSCLC): inactive; outcome (KM20L2 colon): inactive; TGI (BT-549 breast): > 100 µM; TGI (MCF7 breast): 81.8 µM; GI50 (DMS 273 small cell lung): 17.6 µg/mL (≈ 50.3 µM); GI50 (SNB-78 CNS): 8.37 µg/mL; TGI (DU-145 prostate): 92 µM
O=C(CC1Sc2ccccc2NC1=O)Nc1cccc(Cl)c1 (configuration not stated)	> 100 µM	> 100 µM	> 100 µM	> 100 µM	> 100 µM	

Structure (SMILES)	TGI (LXFL 529 NSCLC)	TGI (KM20L2 colon)	TGI (DMS 114 small cell lung)	TGI (DMS 273 small cell lung)	TGI (SNB-78 CNS)	further results
CCCOC(=O)C1CCC(=O)N1C(=O)C(Cl)Cl (configuration not stated)	> 100 µM	> 100 µM	> 100 µM	> 100 µM	> 100 µM	
CN(C)CCCn1cnc2ncccc2c1=O	> 100 µM		> 100 µM	> 100 µM	> 100 µM	
CCCCNC(=S)Nn1c(-c2ccccc2)nc2ccccc2c1=O	> 100 µM		> 100 µM	> 100 µM		
COC(=O)C1=CC(=O)C(C(=O)Nc2ccc(OC)cc2)C(c2ccccc2)O1 (configuration not stated)	62.4 µM	> 100 µM	> 67.5 µM	> 71 µM	> 81.9 µM	
CCc1ccc(Cc2ccc(CC)c(NC(=O)C(=O)Cc3nc4ccccc4nc3C)c2CC)c(CC)c1NC(=O)C(=O)Cc1nc2ccccc2nc1C	> 100 µM	> 100 µM	> 100 µM		> 100 µM	
CC(=O)NNc1nc(C)c(C(/C=C/c2ccc(/C=C/C(=N\NC(=O)c3ccncc3)c3sc(NNC(C)=O)nc3C)cc2)=N/NC(=O)c2ccncc2)s1	> 100 µM	> 100 µM	> 100 µM		> 100 µM	
COCCNC(=O)C1C(=O)N(CCOC)C(=O)/C1=N/N (configuration not stated)	> 100 µM	> 100 µM		> 100 µM	> 100 µM	
CC(C)NC(=O)OCc1nnn2c1C(OC(=O)NC(C)C)CC2 (configuration not stated)	> 100 µM	> 100 µM	> 100 µM	> 100 µM	> 100 µM	
CCOC(=O)C(C(=O)c1ccccc1-c1ccccc1C(=O)O)=P(c1ccccc1)(c1ccccc1)c1ccccc1	> 100 µM	59.5 µM	54.4 µM	> 100 µM		
O=c1[nH]nc(-c2ccccc2)c(-c2ccccc2)c1-n1nc(-c2ccccc2)c2ccccc2c1=O	> 100 µM			> 100 µM	> 100 µM	
COC(=O)C1=C(O)C(O)=C(C(=O)OC)CC1	> 100 µM		> 100 µM	> 100 µM	> 100 µM	
CN1CCC(O)C(CNC23CC4CC(CC(C4)C2)C3)C1 (configuration not stated)	> 100 µM	> 100 µM	> 100 µM	> 100 µM	> 100 µM	
CC(=O)OC1COC(N2C(=O)C(=O)c3c(C)cc(Cl)nc32)C(OC(C)=O)C1OC(C)=O (configuration not stated)	> 100 µM	> 100 µM	> 100 µM	> 100 µM	> 100 µM	
COc1ccc(NC(=O)CC/C(CC(=O)c2ccco2)=N/Nc2ccc([N+](=O)[O-])cc2[N+](=O)[O-])cc1	> 100 µM	> 100 µM	69.6 µM	> 100 µM	> 100 µM	
COc1ccc(CN(O)C2C(CO)OC(n3cc(I)c(=O)[nH]c3=O)C2O)cc1 (configuration not stated)	> 100 µM	> 100 µM	> 100 µM	> 100 µM	> 100 µM	
COC(=O)C1=Cc2cc3c(cc2[C@H](c2ccc4c(c2)OCO4)C1C(=O)OC)OCO3 (some centres not stated)	> 100 µM	> 100 µM	> 100 µM	> 100 µM	> 100 µM	
CCS[C@H]1NC(=O)C1[C@H](C)O[Si](C)(C)C(C)(C)C (some centres not stated)		> 100 µM	> 100 µM	> 100 µM	> 100 µM	
CCN(CC)CCN(C)CC(C)(C)C(=O)/C=C/c1ccccc1	24.7 µM	23.1 µM	21.4 µM	26.1 µM		
COc1ccc(NC(=O)c2ccc(NC3=C(Cl)C(=O)N(Cc4ccccc4)C3=O)cc2)cc1						GI50 (BT-549 breast): 8.27 µM; TGI (BT-549 breast): 26.2 µM; GI50 (NCI/ADR-RES ovarian): 11.9 µM; TGI (NCI/ADR-RES ovarian): 38.7 µM; GI50 (MCF7 breast): 7.9 µM; TGI (MCF7 breast): > 100 µM; GI50 (DU-145 prostate): 5 µM; TGI (DU-145 prostate): 24.3 µM
